“Also recorded” adds a separate entry of the source. Where a name gives a salt, the structure may show the parent alone. Read-outs that look alike come from different tables or passages of the source.
What was measured:
SLCO1B1 = conditions: cited from earlier work
[1] = cited from earlier work
Abcg2 = test: TaqMan RT-PCR of small intestinal Abcg2 mRNA; format: in vivo, mouse; conditions: huPXR/huCAR/huCYP3A4/3A7 mice treated with RIF
Abcb1b = test: TaqMan RT-PCR of small intestinal Abcb1b mRNA; format: in vivo, mouse
Abcb1a = test: TaqMan RT-PCR of small intestinal Abcb1a mRNA; format: in vivo, mouse
CYP3A4 [2] = tested on: CYP3A4
[3] = Vemurafenib pharmacokinetics in huPXR/huCAR/huCYP3A4/3A7 mice; format: in vivo, mouse; conditions: for AUC: AUCall of vemurafenib
Cyp2b = test: Western blot of hepatic microsomal Cyp2b; format: in vivo, mouse; conditions: huPXR/huCAR/huCYP3A4/3A7 mice
[4] = tested on: OH-vemurafenib formation in pooled HLM; test: Inhibition of OH-vemurafenib formation in pooled HLM by CYP inhibitors; format: in vitro ADME, human; conditions: pooled HLM 0.2 mg/mL, 60 μM vemurafenib, 10 min; 1 μM ketoconazole, 2 μM sulfaphenazole
[5] = format: in vivo, mouse
[6] = Apparent kinetics of OH-vemurafenib formation in MLM; format: in vitro ADME, mouse; conditions: Hill equation fit
Cyp1a = test: Western blot of hepatic microsomal Cyp1a; format: in vivo, mouse; conditions: huPXR/huCAR/huCYP3A4/3A7 mice, MBP vemurafenib 100 mg/kg b.i.d. four days
[7] = tested on: BRAF^V600E-positive metastatic melanoma; conditions: single agent, all patients with BRAF V600E-positive metastatic melanoma; cited from earlier work
[8] = Vemurafenib pharmacokinetics in huPXR/huCAR mice; format: in vivo; conditions: male, mouse, whole blood, po, 50 mg/kg, AUCall of vemurafenib, RIF pre-treatment, Figure 3A
CYP2C9 [9] = biological target: T1, CYP2C9 (Homo sapiens, UniProt P11712); conditions: 60 μM compound, 400 pmol/mL enzyme, 15 min
CYP3A4 [10] = test: TaqMan RT-PCR of small intestinal CYP3A4 mRNA; format: in vivo, mouse; conditions: MBP vemurafenib 100 mg/kg b.i.d. four days
CYP2C9 [11] = biological target: T1, CYP2C9; test: in vitro; conditions: recombinant CYP2C9, pH 7.4
[12] = crystalline form, physiological pH; cited from earlier work
CYP3A4 [13] = conditions: patients at steady state; cited from earlier work
[14] = read-out: Cmax (mean) in patients at steady state; cited from earlier work
DPX2 cells = test: Toxicity in DPX2 cells in the PXR-transactivation assay; format: cell-based; conditions: top two concentrations (41.67 and 125 μM), 48 hours
CYP2D6 = conditions: patients at steady state; cited from earlier work
CYP3A4 [15] = biological target: T2, CYP3A4 (Homo sapiens, UniProt P08684); test: biochemical
Target sequence in this assay (P08684 2-503): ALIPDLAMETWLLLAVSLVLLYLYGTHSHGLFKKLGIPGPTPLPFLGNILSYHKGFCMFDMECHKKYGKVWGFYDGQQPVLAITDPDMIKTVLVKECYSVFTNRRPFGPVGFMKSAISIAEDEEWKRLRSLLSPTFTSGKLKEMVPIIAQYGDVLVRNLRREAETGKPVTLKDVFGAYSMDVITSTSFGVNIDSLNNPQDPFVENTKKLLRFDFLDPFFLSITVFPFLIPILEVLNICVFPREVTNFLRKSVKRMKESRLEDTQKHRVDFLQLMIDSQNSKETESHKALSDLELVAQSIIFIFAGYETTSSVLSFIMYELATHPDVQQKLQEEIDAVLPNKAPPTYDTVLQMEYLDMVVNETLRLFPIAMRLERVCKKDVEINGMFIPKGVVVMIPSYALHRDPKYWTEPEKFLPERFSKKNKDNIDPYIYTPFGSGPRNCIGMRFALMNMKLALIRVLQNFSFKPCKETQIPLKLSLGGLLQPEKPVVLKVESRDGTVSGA

ABCB1 = conditions: MDCK-ABCB1 cell line; cited from earlier work
PXR = biological target: T3, PXR (Homo sapiens, UniProt O75469); test: PXR-transactivation assay in DPX2 cells
T3 sequence (O75469 1-434): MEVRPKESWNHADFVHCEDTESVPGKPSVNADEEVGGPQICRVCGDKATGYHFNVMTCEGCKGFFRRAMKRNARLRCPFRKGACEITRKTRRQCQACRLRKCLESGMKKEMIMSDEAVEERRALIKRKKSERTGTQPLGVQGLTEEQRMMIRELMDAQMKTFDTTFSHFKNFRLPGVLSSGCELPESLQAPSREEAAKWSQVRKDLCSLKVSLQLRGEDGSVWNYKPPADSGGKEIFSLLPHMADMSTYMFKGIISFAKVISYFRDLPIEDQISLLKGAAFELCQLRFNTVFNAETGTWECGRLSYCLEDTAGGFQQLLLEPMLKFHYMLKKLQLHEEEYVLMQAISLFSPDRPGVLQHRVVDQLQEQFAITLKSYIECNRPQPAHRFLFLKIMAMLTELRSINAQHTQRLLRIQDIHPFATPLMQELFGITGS

[16] = Apparent kinetics of OH-vemurafenib formation in HLM; format: in vitro ADME, human
COLO205 xenografts = conditions: cited from earlier work
CYP1A2 = conditions: patients at steady state; cited from earlier work
[17] = format: in vivo; conditions: huPXR/huCAR/huCYP3A4/3A7, mouse, whole blood, po, 100 mg/kg
CYP3A4 [18] = biological target: T2, CYP3A4
Target sequence in this assay (P08684 whole entry): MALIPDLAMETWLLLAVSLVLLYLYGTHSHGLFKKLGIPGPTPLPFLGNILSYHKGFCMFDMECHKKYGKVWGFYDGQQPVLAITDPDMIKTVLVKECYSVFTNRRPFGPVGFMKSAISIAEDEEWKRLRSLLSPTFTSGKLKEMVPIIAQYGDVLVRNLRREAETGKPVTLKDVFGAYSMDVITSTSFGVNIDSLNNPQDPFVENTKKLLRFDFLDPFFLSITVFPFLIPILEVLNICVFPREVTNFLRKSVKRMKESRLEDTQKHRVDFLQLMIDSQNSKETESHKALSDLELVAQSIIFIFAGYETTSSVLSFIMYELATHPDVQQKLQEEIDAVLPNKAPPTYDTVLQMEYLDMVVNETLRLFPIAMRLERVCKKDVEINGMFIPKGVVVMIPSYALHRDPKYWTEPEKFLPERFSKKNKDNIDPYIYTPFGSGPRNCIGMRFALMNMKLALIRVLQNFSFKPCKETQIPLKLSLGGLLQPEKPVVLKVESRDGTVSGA

[19] = Microsomal stability in pooled human liver microsomes; format: in vitro ADME; conditions: 1 μM, 0.2 mg/mL pooled HLM, presence and absence of NADPH, up to 50 min
[20] = huPXR/huCAR/huCYP3A4/3A7 mice treated with RIF
[21] = MBP vemurafenib 100 mg/kg b.i.d. four days

T1 sequence (P11712 whole entry): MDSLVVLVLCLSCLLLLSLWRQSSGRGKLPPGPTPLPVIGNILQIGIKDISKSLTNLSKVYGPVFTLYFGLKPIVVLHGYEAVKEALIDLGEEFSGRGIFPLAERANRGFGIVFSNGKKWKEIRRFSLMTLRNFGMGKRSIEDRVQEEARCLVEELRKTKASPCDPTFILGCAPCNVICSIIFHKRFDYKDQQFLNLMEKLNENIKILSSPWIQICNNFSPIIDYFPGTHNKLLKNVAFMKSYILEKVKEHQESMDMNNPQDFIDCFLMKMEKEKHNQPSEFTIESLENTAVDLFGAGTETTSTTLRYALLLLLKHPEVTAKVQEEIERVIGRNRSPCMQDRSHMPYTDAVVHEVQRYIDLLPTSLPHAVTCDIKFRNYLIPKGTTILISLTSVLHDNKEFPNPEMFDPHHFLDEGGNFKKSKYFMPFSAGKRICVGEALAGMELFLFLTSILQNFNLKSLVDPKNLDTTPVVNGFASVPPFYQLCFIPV

## COc1cc2c(cc1OC)CN(CCc1ccc(NC(=O)c3cccc4c(=O)c5cccc(OC)c5[nH]c34)cc1)CC2 [elacridar, Elacridar hydrochloride]
SLCO1B1
  Inhibition of SLCO1B1: known to inhibit

## monohydroxy-vemurafenib [OH-vemurafenib]
[1]; 48 – 96 hr samples
  OH-vemurafenib as share of the total dose: 3.4%
  OH-vemurafenib share of recovered radioactivity: 13.7%

## CO[C@H]1/C=C/O[C@@]2(C)Oc3c(C)c(O)c4c(O)c(c(/C=N/N5CCN(C)CC5)c(O)c4c3C2=O)NC(=O)/C(C)=C\C=C\[C@H](C)[C@H](O)[C@@H](C)[C@@H](O)[C@@H](C)[C@H](OC(C)=O)[C@@H]1C [rifampicin]
Abcg2
  Change in mRNA for Abcg2 in the small intestine: no change
Abcb1b; [20]
  Change in mRNA for Abcb1b in the small intestine: no change
Abcb1a; [20]
  Increase in mRNA for Abcb1a in the small intestine: 4.7 fold

## CCC1(c2ccccc2)C(=O)NC(=O)NC1=O [PB, Phenobarbital]
CYP3A4 [2]; mouse, in vivo
  Hepatic CYP3A4 protein (Western blot): weakly inducing
[3]; PB 80 mg/kg i.p. for three days, huPXR/huCAR/huCYP3A4/3A7 mice
  Effect of PB pre-treatment on vemurafenib kinetic parameters: no effect
Cyp2b
  Hepatic Cyp2b / Cyp2b10 protein (Western blot): induction

## CC(=O)N1CCN(c2ccc(OCC3COC(Cn4ccnc4)(c4ccc(Cl)cc4Cl)O3)cc2)CC1 (stereo not drawn) [ketoconazole]
[4]
  Inhibition of OH-vemurafenib formation: significantly inhibited

## Nc1ccc(S(=O)(=O)Nc2ccnn2-c2ccccc2)cc1 [sulfaphenazole]
[4]
  Inhibition of OH-vemurafenib formation: partial decrease; also recorded: small but statistically significant decrease

## CC(=O)[C@H]1[C@H](C#N)C[C@H]2[C@@H]3CC=C4C[C@@H](O)CC[C@]4(C)[C@H]3CC[C@@]21C [PCN, 5-pregnenolone-3β-ol-20-one-16α-carbonitrile]
CYP3A4 [2]; huCYP3A4/3A7 mice, PCN three days
  Hepatic CYP3A4 protein (Western blot): effectively induced
[5]; PCN 10 mg/kg i.p. three days, Cyp3a null and huCYP3A4/3A7 animals
  Effect of PCN pre-treatment on vemurafenib clearance: enhanced clearance equally well

## CCCS(=O)(=O)Nc1ccc(F)c(C(=O)c2c[nH]c3ncc(-c4ccc(Cl)cc4)cc23)c1F [vemurafenib, Vemurafenib]
[6]
  S50 of OH-vemurafenib formation: 23.8 ± 4.9 µM
  Vmax of OH-vemurafenib formation: 467 ± 54 peak area/min/mg
Cyp1a
  Hepatic Cyp1a protein (Western blot): moderate induction
[7]
  Objective tumour response: 48%
Abcb1b; [21]
  Change in small intestinal Abcb1b mRNA expression: no change
[8]
  AUC: 75 ± 33 µg·h/mL
CYP2C9 [9]
  Generation of OH-vemurafenib by recombinant CYP: formed
CYP3A4 [10]
  Change in small intestinal CYP3A4 mRNA expression: no change
CYP2C9 [11]
  Km at 0.15 h: 20.4 ± 1.7 µM
[1]; 0 – 48 hr period
  Recovered radioactivity in the parental form: ≥ 94%
[1]; 48 – 96 hr period
  Recovered radioactivity in the parental form: 55.5 ± 20.1%
[1]
  Time for 95% of the radioactive dose to be recovered: 18 days
  Total dose recovered within the first 96 hours: 68.5%
[1]; over 18 days
  Radioactive dose recovered in faeces: 94%
  Radioactive dose recovered in urine: 1%
[12]
  Aqueous solubility: 0.01 to 10 µg/mL
CYP3A4 [13]
  Decrease in AUC0-last of the CYP3A4-specific probe midazolam: 39%
Abcb1a; [21]
  Change in small intestinal Abcb1a mRNA expression: no change
CYP3A4 [2]; huPXR/huCAR/huCYP3A4/3A7 mice
  Hepatic CYP3A4 protein (Western blot): weak induction
[14]
  Cmax: 86 ± 32 µM
[5]; vemurafenib 50 mg/kg oral after PCN for three days
  Decrease in Cmax and AUCall and increase in CL in huCYP3A4/3A7 PCN group relative to Cyp3aKO/Cyp3a13+/+ PCN group: not statistically significant
DPX2 cells
  Toxicity to DPX2 cells: highly toxic
CYP2D6
  Increase in AUC0-last of the CYP2D6 probe dextromethorphan: 47%
CYP3A4 [15]
  IC50: 14.9 µM
[3]; male, huPXR/huCAR/huCYP3A4/3A7, mouse, whole blood, po, 50 mg/kg, RIF alone, Figure 5A
  AUC: 90 ± 13 µg·h/mL
[3]; male, huPXR/huCAR/huCYP3A4/3A7, mouse, whole blood, po, 50 mg/kg, huPXR/huCAR/huCYP3A4/3A7 mice, RIF pre-treatment, Figure 3A
  AUC: 121 ± 18 µg·h/mL
[3]; male, huPXR/huCAR/huCYP3A4/3A7, mouse, whole blood, po, 50 mg/kg, huPXR/huCAR/huCYP3A4/3A7 mice, vehicle pre-treatment, Figure 3A
  AUC: 432 ± 169 µg·h/mL
[3]; male, huPXR/huCAR/huCYP3A4/3A7, mouse, whole blood, po, 50 mg/kg, vehicle (CO) alone, Figure 5A
  AUC: 391 ± 112 µg·h/mL
[3]; male, huPXR/huCAR/huCYP3A4/3A7, mouse, whole blood, po, 50 mg/kg, vehicle (CO) then elacridar, Figure 5A
  AUC: 684 ± 85 µg·h/mL
[3]; male, huPXR/huCAR/huCYP3A4/3A7, mouse, whole blood, po, 50 mg/kg, Cmax of vemurafenib, vehicle (CO) then elacridar, Figure 5A
  Cmax: 37800 ± 3500 ng/mL
ABCB1
  ABCB1 interaction: both an ABCB1 substrate and inhibitor
PXR
  EC50: 8.13 µM
PXR; DPX2 cells, 48 hours, fold change vs vehicle control
  EMAX of PXR activation: 8.54 fold
[16]; HLM vs MLM
  Vmax for HLM relative to MLM: approximately 10 fold
[16]; HLM, Hill equation fit
  S50 of OH-vemurafenib formation: 23.2 ± 0.8 µM
  Vmax of OH-vemurafenib formation: 4879 ± 108 peak area/min/mg
COLO205 xenografts
  AUC0-24 necessary to effect regression of COLO205 xenografts: 300 µM·h
CYP1A2
  Increase in AUC0-last of the CYP1A2 probe caffeine: 160%
[17]
  AUC: 1140 ± 242 µM·h
  Cmax: 122 ± 19.7 µM
CYP3A4 [18]; 60 μM compound, 400 pmol/mL enzyme, 15 min
  Generation of OH-vemurafenib by recombinant CYP: formed
CYP3A4 [18]; S50 CYP3A4 vs CYP2C9
  Affinity for vemurafenib, CYP3A4 relative to CYP2C9: 2 fold
[19]
  Metabolic stability: highly stable
Cyp2b
  Hepatic Cyp2b / Cyp2b10 protein (Western blot): weak induction
